Experimental findings from patent US12351580B2, “NLRP3 modulators” (Innate Tumor Immunity, Inc., priority 2017, dated 2025) are described below.

In this assay the target is T1, hNLRP3 (Homo sapiens, UniProt Q96P20).
T1 construct: THP-1 cells were purchased from the American Type Culture Collection; host or cells: THP-1 cells, PMA-differentiated
T1 sequence (Q96P20 whole entry): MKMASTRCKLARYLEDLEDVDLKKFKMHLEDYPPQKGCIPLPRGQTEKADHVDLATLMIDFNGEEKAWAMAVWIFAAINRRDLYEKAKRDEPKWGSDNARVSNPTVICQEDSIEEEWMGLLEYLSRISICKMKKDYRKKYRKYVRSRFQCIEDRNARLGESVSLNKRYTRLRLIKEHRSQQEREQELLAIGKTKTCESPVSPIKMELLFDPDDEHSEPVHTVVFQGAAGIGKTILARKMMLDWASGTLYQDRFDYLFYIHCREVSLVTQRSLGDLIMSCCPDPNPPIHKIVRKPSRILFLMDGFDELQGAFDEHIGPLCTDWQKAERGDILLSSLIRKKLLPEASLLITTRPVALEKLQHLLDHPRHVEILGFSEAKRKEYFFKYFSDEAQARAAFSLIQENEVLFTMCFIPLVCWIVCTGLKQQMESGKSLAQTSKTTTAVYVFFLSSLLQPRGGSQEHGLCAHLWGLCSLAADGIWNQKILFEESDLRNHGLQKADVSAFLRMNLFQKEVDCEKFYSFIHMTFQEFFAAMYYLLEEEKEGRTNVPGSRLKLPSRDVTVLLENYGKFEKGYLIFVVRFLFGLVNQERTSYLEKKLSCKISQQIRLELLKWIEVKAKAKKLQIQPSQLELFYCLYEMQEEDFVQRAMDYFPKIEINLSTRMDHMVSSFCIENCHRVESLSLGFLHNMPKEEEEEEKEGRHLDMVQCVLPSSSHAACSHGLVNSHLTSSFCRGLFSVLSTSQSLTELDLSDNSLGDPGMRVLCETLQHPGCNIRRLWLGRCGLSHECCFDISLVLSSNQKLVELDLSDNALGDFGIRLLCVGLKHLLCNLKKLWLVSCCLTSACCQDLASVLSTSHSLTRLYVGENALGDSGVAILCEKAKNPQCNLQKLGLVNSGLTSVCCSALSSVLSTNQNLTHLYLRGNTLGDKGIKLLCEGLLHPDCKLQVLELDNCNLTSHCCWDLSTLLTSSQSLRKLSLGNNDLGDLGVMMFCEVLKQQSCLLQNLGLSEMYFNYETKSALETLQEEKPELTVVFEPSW
Kind of assay: Measurement of IL-1β production in PMA-differentiated THP-1 cells (hNLRP3 agonist; ELISA, alternative and hTRF procedures). In kind it is cell-based. In a few lines: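 Supernatant IL-1β was quantified by ELISA in two procedures and by hTRF (kit antibodies at 1:40) in a third. THP-1 cells were first differentiated with PMA ([…] for 24 h; 20 μg/ml overnight; 50 ng/ml overnight), then incubated in 2% FBS RPMI with compounds for 4 h, 2 h and 2 h, respectively, at 1% DMSO or a 10 μM top concentration.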
(In an ELISA, binding on a coated surface is turned into a signal by an enzyme label.)
On to `CCN(Cc1nc2c(N)nc3cc(-c4ccn(C)n4)ccc3c2[nH]1)C(=O)OC(C)(C)C` [Compound 393], for which the concentration giving a half-maximal response (EC50) stood at 7.11 µM.
The compound `CCN(Cc1nc2c(N)nc3cc(-c4ccsc4)ccc3c2[nH]1)C(=O)OC(C)(C)C` [Compound 397] had an EC50 of 1.05 µM.
To `CCNCc1nc2c(N)nc3cc(-n4cccn4)ccc3c2[nH]1` [Compound 398] belongs 1.22 µM; to `CCNCc1nc2c(N)nc3cc(-c4cccs4)ccc3c2[nH]1` [Compound 399], 1.06 µM.
Turning to `CCNCc1nc2c(N)nc3cc(-c4ccsc4)ccc3c2[nH]1` [Compound 400], the EC50 came out at 1.79 µM.
For `CNCc1nc2c(N)nc3cc(-c4cc[nH]n4)ccc3c2[nH]1` [Compound 401] the value was 1.23 µM.
For `CNCc1nc2c(N)nc3cc(-n4cccn4)ccc3c2[nH]1` [Compound 402] the value was 1.31 µM; for `COc1ccc(Cn2c(CN3CCN(C)C3=O)nc3c(N)nc4cc(-c5cc[nH]n5)ccc4c32)cc1` [Compound 403], 3.66 µM.
To `COc1ccc(Cn2c(CN3C(=O)OCC3COCc3ccccc3)nc3c(N)nc4cc(-c5cc[nH]n5)ccc4c32)cc1` (stereo not shown) [Compound 404] belongs 2.5 µM; to `COC(=O)N(C)Cc1nc2c(N)nc3cc(-c4cc[nH]n4)ccc3c2[nH]1` [Compound 405], 2.19 µM.
In turn, `CCN(Cc1nc2c(N)nc3cc(-c4cc[nH]n4)ccc3c2[nH]1)C(=O)OC` [Compound 406] yielded an EC50 of 1.37 µM.
For `Nc1nc2cc(-c3cc[nH]n3)ccc2c2[nH]c(CN3C[C@@H](c4ccccc4)CC3=O)nc12` [Compound 407] the value was 6.55 µM.
To `Nc1nc2cc(-c3cc[nH]n3)ccc2c2[nH]c(CN3C[C@H](c4ccccc4)CC3=O)nc12` [Compound 408] belongs 5.23 µM.
For `COc1ccc(Cn2c(CN3C(=O)OCC3c3ccccc3)nc3c(N)nc4cc(-c5cc[nH]n5)ccc4c32)cc1` (stereo not shown) [Compound 409], the EC50 stood at 2.36 µM.
For `COc1ccc(Cn2c(Cn3cnccc3=O)nc3c(N)nc4cc(-c5cc[nH]n5)ccc4c32)cc1` [Compound 414] the value was 3.83 µM.
For `CCN(Cc1nc2c(N)nc3cc(-c4cc[nH]n4)ccc3c2[nH]1)C(=O)C1COC1` [Compound 417] the value was 7.4 µM.
The compound `CCN(Cc1nc2c(N)nc3cc(-c4ccsc4)ccc3c2[nH]1)C(C)=O` [Compound 419, N-((4-Amino-7-(thiophen-3-yl)-1H-imidazo[4,5-c]quinolin-2-yl)methyl)-N-ethylacetamide] yielded an EC50 of 0.91 µM.
For `CCN(Cc1nc2c(N)nc3cc(-c4cc[nH]n4)ccc3c2n1C)C(=O)OC(C)(C)C` [Compound 420], the EC50 was 0.19 µM.
For `CCN(Cc1nc2c(N)nc3cc(-c4ccc(C)cc4)ccc3c2[nH]1)C(C)=O` [Compound 422] the value was 0.28 µM; for `Nc1nc2cc(-n3cccn3)ccc2c2[nH]c(CN3CCCCC3=O)nc12` [Compound 423], 0.62 µM.
In turn, `CCN(Cc1nc2c(N)nc3cc(-c4cncc(F)c4)ccc3c2[nH]1)C(C)=O` [Compound 427] displayed an EC50 of 5 µM.
Turning to `CCN(Cc1nc2c(N)nc3cc(Br)ccc3c2n1CC(C)C)C(C)=O` [Compound 430], the EC50 was 7.45 µM.
To `CCN(Cc1nc2c(N)nc3cc(Br)ccc3c2n1CCCOC)C(C)=O` [Compound 431] belongs 8.67 µM.
To `N#Cc1ccc(-c2ccc3c(c2)nc(N)c2nc(CN4CCCC4=O)[nH]c23)cc1` [Compound 434] belongs 15.5 µM; to `CCOC(=O)N(CC)Cc1nc2c(N)nc3cc(-c4cc[nH]n4)ccc3c2[nH]1` [Compound 436, Ethyl N-{[4-amino-7-(1H-pyrazol-3-yl)-1H-imidazo[4,5-c]quinolin-2-yl]methyl}-N-ethylcarbamate], 1.3 µM; to `CCN(Cc1nc2c(N)nc3cc(-c4cc[nH]n4)ccc3c2[nH]1)C(=O)Cc1cccc(C)c1` [Compound 437, N-{[4-amino-7-(1H-pyrazol-3-yl)-1H-imidazo[4,5-c]quinolin-2-yl]methyl}-N-ethyl-2-(3-methylphenyl)acetamide], 1.1 µM.
For `CCN(Cc1nc2c(N)nc3cc(-c4cc[nH]n4)ccc3c2[nH]1)C(=O)c1cccnc1` [Compound 438, N-{[4-amino-7-(1H-pyrazol-3-yl)-1H-imidazo[4,5-c]quinolin-2-yl]methyl}-N-ethylpyridine-3-carboxamide] the value was 4.2 µM; for `CCN(Cc1nc2c(N)nc3cc(-c4cc[nH]n4)ccc3c2[nH]1)C(=O)c1ccccn1` [Compound 439, N-{[4-amino-7-(1H-pyrazol-3-yl)-1H-imidazo[4,5-c]quinolin-2-yl]methyl}-N-ethylpyridine-2-carboxamide], 5.7 µM; for `CCN(Cc1nc2c(N)nc3cc(-c4cc[nH]n4)ccc3c2[nH]1)C(=O)CC(C)(C)O` [Compound 440, N-{[4-amino-7-(1H-pyrazol-3-yl)-1H-imidazo[4,5-c]quinolin-2-yl]methyl}-N-ethyl-3-hydroxy-3-methylbutanamide], 18.4 µM.
With `CCN(Cc1nc2c(N)nc3cc(-c4cc[nH]n4)ccc3c2[nH]1)C(=O)c1ccc(OC)cc1` [Compound 441, N-{[4-amino-7-(1H-pyrazol-3-yl)-1H-imidazo[4,5-c]quinolin-2-yl]methyl}-N-ethyl-4-methoxybenzamide], a half-maximal effect (EC50) was put at 0.69 µM.
To `CCN(Cc1nc2c(N)nc3cc(-c4cc[nH]n4)ccc3c2[nH]1)C(=O)c1cnccn1` [Compound 442, N-{[4-amino-7-(1H-pyrazol-3-yl)-1H-imidazo[4,5-c]quinolin-2-yl]methyl}-N-ethylpyrazine-2-carboxamide] belongs 2.6 µM.
For `CCN(Cc1nc2c(N)nc3cc(-c4cc[nH]n4)ccc3c2[nH]1)C(=O)Cc1ccccc1` [Compound 443, N-{[4-amino-7-(1H-pyrazol-3-yl)-1H-imidazo[4,5-c]quinolin-2-yl]methyl}-N-ethyl-2-phenylacetamide] the value was 0.86 µM; for `CCN(Cc1nc2c(N)nc3cc(-c4cc[nH]n4)ccc3c2[nH]1)C(=O)CCCc1ccccc1` [Compound 444, N-{[4-amino-7-(1H-pyrazol-3-yl)-1H-imidazo[4,5-c]quinolin-2-yl]methyl}-N-ethyl-4-phenylbutanamide], 0.93 µM.
For `CCN(Cc1nc2c(N)nc3cc(-c4cc[nH]n4)ccc3c2[nH]1)C(=O)CCC(C)C` [Compound 445, N-{[4-amino-7-(1H-pyrazol-3-yl)-1H-imidazo[4,5-c]quinolin-2-yl]methyl}-N-ethyl-4-methylpentanamide] the value was 0.74 µM; for `CCN(Cc1nc2c(N)nc3cc(-c4cc[nH]n4)ccc3c2[nH]1)C(=O)c1cccn1C` [Compound 446, N-{[4-amino-7-(1H-pyrazol-3-yl)-1H-imidazo[4,5-c]quinolin-2-yl]methyl}-N-ethyl-1-methyl-1H-pyrrole-2-carboxamide], 0.67 µM; for `CCN(Cc1nc2c(N)nc3cc(-c4cc[nH]n4)ccc3c2[nH]1)C(=O)CCc1ccccc1` [Compound 447, N-{[4-amino-7-(1H-pyrazol-3-yl)-1H-imidazo[4,5-c]quinolin-2-yl]methyl}-N-ethyl-3-phenylpropanamide], 1.5 µM.
In turn, `CCN(Cc1nc2c(N)nc3cc(-c4cc[nH]n4)ccc3c2[nH]1)C(=O)c1ccccc1Cl` [Compound 449, N-{[4-amino-7-(1H-pyrazol-3-yl)-1H-imidazo[4,5-c]quinolin-2-yl]methyl}-2-chloro-N-ethylbenzamide] gave an EC50 of 0.9 µM.
For `CCN(Cc1nc2c(N)nc3cc(-c4cc[nH]n4)ccc3c2[nH]1)C(=O)c1ccncc1` [Compound 450, N-{[4-amino-7-(1H-pyrazol-3-yl)-1H-imidazo[4,5-c]quinolin-2-yl]methyl}-N-ethylpyridine-4-carboxamide] the value was 4.5 µM.
To `CCN(Cc1nc2c(N)nc3cc(-c4cc[nH]n4)ccc3c2[nH]1)C(=O)c1cn(C)c2ccccc12` [Compound 451, N-{[4-amino-7-(1H-pyrazol-3-yl)-1H-imidazo[4,5-c]quinolin-2-yl]methyl}-N-ethyl-1-methyl-1H-indole-3-carboxamide] belongs 1.3 µM.
To `CCN(Cc1nc2c(N)nc3cc(-c4cc[nH]n4)ccc3c2[nH]1)C(=O)c1ccc(Cl)cc1` [Compound 452, N-{[4-amino-7-(1H-pyrazol-3-yl)-1H-imidazo[4,5-c]quinolin-2-yl]methyl}-4-chloro-N-ethylbenzamide] belongs 1.2 µM.

What is called EC50 is the concentration needed to bring the measured effect to its halfway point. Read a low EC50 as a more potent agent.
